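Each compound was tested at five concentrations against cells in 96-well plates for 48 hours. The concentration for 50% growth inhibition is given as GI50.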 Activity calls are given as the source filed them. No stated cut-off is given here; in the data, active = GI50 up to about 1.1 µM and inactive = higher.
Columns and labels:
Assay in all cases: NCI tumour cell line growth inhibition, 48 h
HOP-18 = test system: HOP-18
EKVX = test system: EKVX
OVCAR-3 = test system: OVCAR-3
OVCAR-8 = test system: OVCAR-8
SNB-75 = test system: SNB-75
RXF 393 = test system: RXF 393
HT-29 = test system: HT-29
M14 = test system: M14
RPMI-8226 = test system: RPMI-8226
HCC 2998 = test system: HCC 2998
SR = test system: SR
OVCAR-5 = test system: OVCAR-5
COLO 205 = test system: COLO 205
TK-10 = test system: TK-10
K562 = test system: K562
MDA-MB-231 = test system: MDA-MB-231
Hs-578T = test system: Hs-578T
MDA-N = test system: MDA-N

Measured: GI50

CC1(C)C(=O)N(c2ccccc2)C(=O)N1c1nc2ccccc2[nH]1
inactive: HOP-18 > 100 µM | EKVX > 100 µM | OVCAR-3 > 100 µM | OVCAR-8 > 100 µM | SNB-75 > 100 µM | RXF 393 > 100 µM | HT-29 65.6 µM | M14 > 100 µM | RPMI-8226 33.7 µM | HCC 2998 > 100 µM | SR 78.7 µM | OVCAR-5 > 100 µM | COLO 205 49.7 µM | TK-10 > 100 µM | K562 53.6 µM

COC(=O)/C=C/c1cc(OC)c(OC)c(OC)c1
inactive: HOP-18 > 100 µM | EKVX > 100 µM | OVCAR-3 > 100 µM | OVCAR-8 > 100 µM | SNB-75 41.6 µM | RXF 393 > 100 µM | HT-29 > 100 µM | M14 > 100 µM | HCC 2998 > 100 µM | SR > 100 µM | COLO 205 > 100 µM | TK-10 > 100 µM

C1OC1CO[C@@H]1CO[C@H]2[C@@H]1OC[C@H]2OCC1CO1 (stereo partly specified)
inactive: HOP-18 > 100 µM | EKVX > 100 µM | OVCAR-3 > 100 µM | OVCAR-8 > 100 µM | SNB-75 > 100 µM | RXF 393 > 100 µM | HT-29 > 100 µM | M14 > 100 µM | RPMI-8226 > 100 µM | HCC 2998 > 100 µM | SR 89.5 µM | OVCAR-5 > 100 µM | COLO 205 > 100 µM | TK-10 > 100 µM | K562 > 100 µM

O=C(CC(=O)c1cccc2ccccc12)C(=O)NC1C2CC3CC(C2)CC1C3 (stereo unspecified)
inactive: HOP-18 60.1 µM | EKVX > 100 µM | OVCAR-3 > 100 µM | OVCAR-8 > 100 µM | HT-29 > 100 µM | M14 > 100 µM | RPMI-8226 > 100 µM | HCC 2998 > 100 µM | OVCAR-5 > 100 µM | COLO 205 > 100 µM | TK-10 > 100 µM | K562 51.4 µM

O=C(c1ccc(Cl)cc1)C1OC12C(=O)Nc1ccccc12 (stereo unspecified)
active: SR 0.731 µM | K562 0.658 µM
inactive: HOP-18 13.9 µM | EKVX 18.1 µM | OVCAR-3 24.6 µM | OVCAR-8 12.1 µM | SNB-75 17.1 µM | RXF 393 15.4 µM | HT-29 8.51 µM | M14 6.18 µM | RPMI-8226 2.4 µM | MDA-MB-231 21 µM | HCC 2998 19.9 µM | Hs-578T 16.5 µM | OVCAR-5 19.2 µM | COLO 205 2.86 µM | MDA-N 3.64 µM | TK-10 20.7 µM

C1=CC(N(c2ccccc2)C2C=CCCC2)CCC1 (stereo unspecified)
inactive: HOP-18 > 100 µM | EKVX > 100 µM | OVCAR-8 > 100 µM | RXF 393 48.6 µM | HT-29 > 100 µM | M14 > 100 µM | RPMI-8226 32.4 µM | COLO 205 > 100 µM | TK-10 > 100 µM | K562 > 100 µM

c1ccc(SC23C4C5C6C4C2C6C53)nc1 (stereo unspecified)
inactive: HOP-18 4.86 µM | EKVX > 100 µM | OVCAR-3 > 100 µM | OVCAR-8 > 100 µM | SNB-75 > 77.4 µM | HT-29 > 100 µM | M14 > 100 µM | RPMI-8226 > 39.5 µM | HCC 2998 > 100 µM | SR > 19.6 µM | OVCAR-5 > 100 µM | COLO 205 > 100 µM | TK-10 > 67.9 µM | K562 > 100 µM

COC(=O)C1=C(C)N(NC(N)=O)C2(N)N(NC(N)=O)C(C)=C(C(=O)OC)C12C(=O)OC (stereo unspecified)
inactive: HOP-18 > 100 µM | EKVX > 100 µM | OVCAR-3 > 10 µM | OVCAR-8 > 100 µM | HT-29 > 100 µM | M14 > 100 µM | RPMI-8226 > 100 µM | HCC 2998 > 100 µM | OVCAR-5 > 100 µM | COLO 205 > 100 µM | TK-10 > 100 µM | K562 > 100 µM

CN(C)C(=S)Nc1nnc(Nc2ccccc2)s1
inactive: HOP-18 > 100 µM | EKVX > 100 µM | OVCAR-3 > 100 µM | OVCAR-8 > 100 µM | SNB-75 > 100 µM | RXF 393 > 100 µM | HT-29 > 100 µM | M14 > 100 µM | HCC 2998 > 100 µM | SR > 100 µM | OVCAR-5 > 100 µM | COLO 205 > 100 µM | K562 > 100 µM

Reference: ChEMBL document CHEMBL1201862, “PubChem BioAssay data set” (2004)
